Drawing on ChEMBL document CHEMBL3507680, “University of Dundee, Gates Library screen for HepG2 cell viability”, this text covers cytotoxicity for 96 compounds.

The nature of this data set: Human HepG2 cell viability assay in 384 well format. The format is toxicity, cell-based. Further details: dose 125 nL, time 70.5 hour; cytotoxicity at 70.5 h: concentration not given beside the values. As to conditions: HepG2 cells, read-out: Inhibition.

Consider `CCc1nc(NC(=O)N(C)Cc2ccoc2)nn1C`, for which the cytotoxicity at 70.5 h is -1.12%.

Turning to `CN1C(=O)[C@H]2CC[C@@H]1CN(C(=O)c1nnc3n1CCCCC3)C2`, the cytotoxicity at 70.5 h was -6.73%. For the compound `CCNC(=O)CN1CCCC(c2ccc(C(=O)O)cc2)C1` (stereo unspecified), the cytotoxicity at 70.5 h came to 31.1%. In the case of `CC(NS(C)(=O)=O)C(=O)N(C)Cc1csc(-c2ccccc2)n1` (stereo unspecified) it was -13.9%; in that of `CC1CCCCN1C(=O)c1coc(COc2cccc3cnccc23)n1` (stereo unspecified), -6.78%; in that of `Cc1ccccc1CSc1nc(N)cc(N2CCC(CC(N)=O)CC2)n1`, -3.38%. Next, `CC(=O)Nc1ccc(Cl)c(C(=O)N(C)C(C)c2ccon2)c1` (stereo unspecified): 5%; `CCC(CO)N(Cc1cccs1)C(=O)Cc1ccc(O)cc1` (stereo unspecified): 16.3%. On to `CN1[C@@H](c2ccccc2)[C@@H](C(=O)NCc2ccccn2)C[C@@]1(C)C(=O)O`, for which the cytotoxicity at 70.5 h stood at 23%.

Consider `Cc1ccc(-c2cn[nH]c2C2CCCN(c3cc(N)ncn3)C2)cc1` (stereo unspecified), for which the cytotoxicity at 70.5 h stood at 5.4%. Next, `CS(=O)(=O)N1C[C@@H]2CC[C@H](C1)N(C(=O)CCc1ccsc1)C2`: -2.59%. Consider `Cc1nc(C)c(CC(=O)N2CCCN(CC3CC3)C(C(C)C)C2)c(=O)[nH]1` (stereo unspecified), for which the cytotoxicity at 70.5 h came out at 0.531%.

`CCNc1ncc(C(=O)N2CCOC(CCCC(C)C)C2)cn1` (stereo unspecified): the cytotoxicity at 70.5 h was -7.7%. In the case of `CC(C)N(Cc1ccc(C(F)(F)F)nc1)Cc1cnn(C)c1` it was -6.85%; in that of `Cc1cnccc1N1CCCN(C(=O)CCn2ccnc2C)CC1`, -3.98%; in that of `CN(CCc1cn[nH]c1)C(=O)C(c1ccc(F)cc1)N(C)C` (stereo unspecified), -9.33%. In the case of `Cc1nc2c(c(=O)[nH]1)CN(C(=O)CCC1CCCN(C)C1)C2` (stereo unspecified) it was -4.89%; in that of `Cn1c(-c2ccccc2Cl)nc2cc(C(=O)NC(CO)CO)cnc21`, -8.01%; in that of `OCCOCCNCC1(c2ccc(F)cc2)CCOC1` (stereo unspecified), -0.024%.

Regarding `CC(C)NC(=O)[C@@H]1C[C@@H](N)CN1C(=O)CCSCc1ccc(F)cc1`, the cytotoxicity at 70.5 h was -3.93%. For `CC(COc1ccccc1)NCc1nncn1C1CCCCC1` (stereo unspecified), the cytotoxicity at 70.5 h came to 7.54%.

Take `O=C(O)[C@@H]1CN(CC(=O)N2CCCCC2)C[C@H]1c1ccc(F)cc1`: the cytotoxicity at 70.5 h is -2.52%. In the case of `Fc1cccc(-n2nc(C3CC3)nc2CCn2cnnn2)c1` it was -3.9%; in that of `Cc1ccc(CN(C)Cc2cnc(N3CCOCC3)s2)o1`, 22.4%. In the case of `CN(Cc1cnccn1)C(=O)[C@@]12CNC[C@@H]1CN(Cc1ccccc1)C2` it was -11.2%; in that of `O=C(Nc1cnc2n1CCCC2)C1CCNCC1`, 26.5%. In the case of `CCc1cnc(C)nc1NC1CC(=O)N(CC2CCCCC2)C1` (stereo unspecified) it was -8.14%. On to `O=C1NCCN(C(=O)c2cn3ccsc3n2)C1Cc1ccccc1` (stereo unspecified), for which the cytotoxicity at 70.5 h was -5.01%.

On to `O=C([C@@H]1CCCO1)N1CCC(Cn2cc(-c3ccsc3)nn2)CC1`, for which the cytotoxicity at 70.5 h is -7.52%.

For the compound `O=C(O)C1(Oc2ccc3ccccc3c2)CCN(c2ncccn2)CC1`, the cytotoxicity at 70.5 h was -0.873%. In the case of `O=C(c1ccc(C(F)(F)F)cc1)N1C[C@@H](CN2CCCCC2)[C@@H](CO)C1` it was 3.19%; in that of `COc1nc2c(cc1C(=O)N(C)Cc1n[nH]c3c1CCCC3)CCC2`, -6.28%.

For the compound `Cc1ccccc1N1CCN(C(=O)c2cnn(C(C)C)c2)C(C)C1` (stereo unspecified), the cytotoxicity at 70.5 h was -4.79%. For the compound `CCn1c(Cn2cncn2)nnc1C1CCN(C2CCNCC2)CC1`, the cytotoxicity at 70.5 h is -5.11%. In the case of `CCc1cc(N2CCN(C(C)=O)CC2)n2nc(C)c(C)c2n1` it was 10.6%. Next, `O=c1cc(CN2CC[C@@]3(O)CCCC[C@H]3C2)c2cccc3c2n1CCC3`: -11.8%; `CCOc1ccc(CN2CC[C@@](C)(O)[C@@H](Cc3ccccc3)C2)cn1`: -1.83%; `CCCOCC1CCN(C(=O)Cn2ncc(N3CCCC3)cc2=O)C1` (stereo unspecified): 26.8%. In the case of `CN1CC2(CCN(C(=O)c3cccc(-n4cccn4)c3)CC2)OC1=O` it was 21.3%. As for `CCn1cc(CN2CCCN(C3Cc4ccccc4C3)CC2)cn1`, the cytotoxicity at 70.5 h was -7.57%.

As for `O=C(c1cc(-c2ccco2)nc2c(Cl)cccc12)N1CC[C@H]2CNC[C@H]21`, the cytotoxicity at 70.5 h is 19.8%. In the case of `Cc1ncc2c(c1CNC(=O)C1(C)CCCCO1)CCNC2` (stereo unspecified) it was 0.49%; in that of `COc1nccnc1N1CCN(Cc2cccc(F)c2)C(=O)C1`, 16.1%. Next, `COc1ccc(NC(=O)N2CCCC(CO)C2)c(C)c1` (stereo unspecified): -6.09%; `CC(C)=CCn1ncc(N2CCOCC2)cc1=O`: -1.75%; `CCc1c(C(=O)N2CCC3(CCCN(CCO)C3=O)C2)csc1C` (stereo unspecified): 6.16%. Consider `CCN(Cc1nc(C)no1)C(=O)C1CC(=O)N(Cc2ccccn2)C1` (stereo unspecified), for which the cytotoxicity at 70.5 h was -13.9%. Next, `CC(C)Cc1noc(CN(C)c2cc(C(C)C)nc3ccnn23)n1`: 5.41%; `Cc1cc(NCCS(C)(=O)=O)n2nc(C)cc2n1`: 4.45%.

On to `O=C1O[C@@H]2CN(Cc3cccc(O)c3)C[C@@H]2N1CCCN1CCOCC1`, for which the cytotoxicity at 70.5 h was -4.83%. For `CSCC(C)NCc1ccc2[nH]c(C)c(C)c2c1` (stereo unspecified), the cytotoxicity at 70.5 h is 1.07%. As to `NCCn1cc(C(=O)N2CCCCCC2c2ccco2)nn1` (stereo unspecified), the cytotoxicity at 70.5 h is -8.2%.

Turning to `Cc1ccc(-c2cc(C(=O)NCCCc3csc(N)n3)[nH]n2)o1`, the cytotoxicity at 70.5 h stood at 1.47%. Next, `CCCc1cnc(C)nc1N1CCC(Cc2cccc(C(N)=O)c2)C1` (stereo unspecified): -2.67%. Next, `CS(=O)(=O)N1CCc2[nH]cnc2C12CCN(C1CCOCC1)CC2`: -6.93%; `O=C1[C@H]2CC[C@H](CN(C3CCOCC3)C2)N1Cc1cscn1`: 23.4%; `CC(C)[C@@H]1CN(S(=O)(=O)Cc2ccccc2)C[C@H]1NS(=O)(=O)N(C)C`: -2.27%.

For the compound `FC(F)(F)c1ccc(-c2n[nH]c3c2CN(CC2CCOC2)CC3)cc1` (stereo unspecified), the cytotoxicity at 70.5 h was -15.3%. Turning to `C[C@@H]1CN(c2ccc(Cl)cn2)C[C@]1(C)O`, the cytotoxicity at 70.5 h stood at 3.11%. In the case of `Cn1ccnc1CN(CCO)C(=O)c1nc2ccccc2s1` it was 2.62%.

For the compound `CN(c1ncccc1CNS(=O)(=O)N1CCOCC1)C1CCCCC1`, the cytotoxicity at 70.5 h amounted to 18.5%.

Consider `CCCc1noc(C2CC(=O)N(CCN(C)C)C2)n1` (stereo unspecified), for which the cytotoxicity at 70.5 h was -18.6%.

As for `Cc1nc2c(c(NCCc3nc4c(s3)CCCC4)n1)CCNCC2`, the cytotoxicity at 70.5 h is -9.11%.

Take `CCc1cnc(NCC2OCCc3ccccc32)nc1` (stereo unspecified): the cytotoxicity at 70.5 h was determined as 3.74%. Next, `CC(C)c1nnc2sc(CC3CCS(=O)(=O)CC3)nn12`: -8.54%; `Cc1ccc(CNC(=O)c2cc(CN3CCC(O)CC3)on2)s1`: -18%; `COc1ccccc1CCN1CCCC(CN(C)Cc2c[nH]c(C)n2)C1` (stereo unspecified): 14.9%. In the case of `O=C(NC1CC1)c1cccc(S(=O)(=O)NCCc2nc(C3CC3)no2)c1` it was -6.39%; in that of `CC(C)c1nc(N2CC[C@@H](N(C)CCc3ccccn3)[C@H](O)C2)no1`, 13.3%; in that of `COc1ccc(Cc2ncc3c(n2)CN(C(=O)CCO)C3)cc1`, 25.1%. Next, `CCN1CC(C(=O)N2CCc3cc(C(=O)N(C)C)n(C)c3C2)CCC1=O` (stereo unspecified): -6.7%; `Cc1cc(NC(C)c2nncn2C2CCCC2)n2nc(C)cc2n1` (stereo unspecified): -6.24%; `Cc1cccc(C2CCCN(C(=O)CN3C(=O)CCNC3=O)C2)c1` (stereo unspecified): -13.9%.

With `Cc1cc(CN2CCCn3nc(CCC(=O)O)cc3C2)ccc1F`, the cytotoxicity at 70.5 h was 2.51%.

For the compound `NC(=O)c1csc(N2CCN(Cc3cccc4nsnc34)CC2)n1`, the cytotoxicity at 70.5 h was found to be 15.7%.

In the case of `O=C(Nc1ccc(F)c(F)c1)N1CCC2(CCC(=O)N(C3CC3)C2)CC1`, the cytotoxicity at 70.5 h was -5.15%. In the case of `C=C(C)CNc1ccc(C(=O)N(CC)Cc2nccn2C)cn1`, the cytotoxicity at 70.5 h was determined as 25.1%. Next, `Cc1nn(CCO)cc1CN1CCC(N2CCC(O)CC2)CC1`: 1.99%; `CN(Cc1c[nH]nc1-c1ccc(F)cc1F)Cc1nccn1C`: 21.7%.

As to `CC(C)S(=O)(=O)N1C[C@H]2OC(=O)N(CCc3cccc(Cl)c3)[C@H]2C1`, the cytotoxicity at 70.5 h is -4.98%. In the case of `CCn1cc(-c2cc(C(=O)N3CCOCC3)c3cc(Cl)ccc3n2)cn1` it was -5.95%. For `CC(C)Cc1cc(CNC(=O)c2cccc3c2OCC3)no1`, the cytotoxicity at 70.5 h is -9.93%. With `N[C@@H]1c2ccccc2C2(CCN(c3ncccc3C(F)(F)F)CC2)[C@H]1O`, the cytotoxicity at 70.5 h turned out to be 44.1%.

As for `CCn1ccc(C(=O)N(C)Cc2cnn(-c3cccc(OC)c3)c2)n1`, the cytotoxicity at 70.5 h was -11.2%. On to `c1ccc(OCCNc2ncnc3sc4c(c23)CCNC4)cc1`, for which the cytotoxicity at 70.5 h was 1.62%. For the compound `COc1ccccc1CN1C(=O)O[C@@H]2CN(c3nc(C)cc(C)n3)C[C@@H]21`, the cytotoxicity at 70.5 h is -3.9%. Next, `O=C(CNCC1(O)CCCN(Cc2cccc(F)c2F)C1=O)NC1CC1` (stereo unspecified): -1.7%.

As to `CCN(Cc1ccncc1)C(=O)c1cn(CC2CCCNC2)nn1` (stereo unspecified), the cytotoxicity at 70.5 h is -17.4%. Consider `Cc1nn(C)c(C)c1CN(Cc1cccn1-c1ccccn1)C(C)C`, for which the cytotoxicity at 70.5 h is 9.47%.

`C[C@@H]1CN(c2cc(N3CCC(O)CC3)ncn2)C[C@@]1(O)C1CC1`: the cytotoxicity at 70.5 h is -0.962%.

Take `Cn1cccc1C(=O)N1CCC2(CC1)c1nc[nH]c1CCN2S(C)(=O)=O`: the cytotoxicity at 70.5 h is -3.6%. As to `Cc1cc(C)nc(NCCSc2cnn[nH]2)n1`, the cytotoxicity at 70.5 h is -2%. In the case of `CC(C)N1CCN(CCn2cnc3c(F)cccc3c2=O)CC1` it was -2.82%; in that of `Cn1c(-c2ccccc2Cl)nc2cc(C(=O)NCC3(C)COC3)cnc21`, 4.56%; in that of `CCC(CC)NCC(c1ccccn1)N1CCOCC1` (stereo unspecified), 2.77%. For the compound `O=C(NC1CC(=O)N(C2Cc3ccccc3C2)C1)c1cc[n+]([O-])cc1` (stereo unspecified), the cytotoxicity at 70.5 h was determined as 9.2%.
